Data taken from ChEMBL document CHEMBL1145731, “A green fluorescent chemosensor for amino acids provides a versatile high-throughput screening (HTS) assay for proteases” (Bioorg Med Chem Lett, 2003).
pEC50: −log10 of the molar value.

Test: Concentration required for obtaining 50% of the fluorescence intensity of copper-free calcein 1, in bovine serum albumin

Compound | pEC50
C[C@H](N)C(=O)O [ALANINE] | ~3.10
N[C@@H](CS)C(=O)O [CYSTEINE] | 4.70
O=C(O)CN(CCN(CC(=O)O)CC(=O)O)CC(=O)O [EDETIC ACID] | 5.00
NCC(=O)O [GLYCINE] | 3.30
N[C@@H](Cc1c[nH]cn1)C(=O)O [HISTIDINE] | 5.00
CC(C)CC(N)C(N)=O (stereo not given) [LEUCINAMIDE] | 1.92
CC(C)C[C@H](N)C(=O)O [LEUCINE] | 2.30
CSCC[C@H](N)C(=O)O [METHIONINE] | 3.10
N[C@@H](CO)C(=O)O [SERINE] | 3.15
CC(C)[C@H](N)C(=O)O [VALINE] | 2.82
